Data: US6770596B1, “Fused tricyclic compounds, process for their preparation, and herbicidal compositions containing them” (Ishihara Sangyo Kaisha Ltd., priority 2002, dated 2004)

How the values were obtained:
Assay type in all cases: in vivo
[1] = test system: lambsquarters (Chenopodium album, CHA); assay: Pre-emerge test, lambsquarters; conditions: 250 g ai/ha, 14 days after application, rating scale 0-100 (0 no damage, 100 complete death)
Method in brief: (§1)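 Pre-emerge greenhouse screen: sow, wait 1 d, spray acetone solution (8–1000 g ai/ha, 187 l/ha), rate injury 0–100 at 14 DAT.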

[2] = test system: soybean (Glycine max L., var. Pella 86, SOY); assay: Pre-emerge test, crop damage soybean
Method in brief: (§2)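 Seeds sown in sandy loam in 10 cm pots one day before pre-emergence spraying of acetone-dissolved compounds at 8–1000 g ai/ha (187 l/ha, track sprayer), greenhouse. Phytotoxicity rated visually 14 days after application on a 0–100 scale (0 no damage, 100 complete death).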

[3] = test system: velvetleaf (Abutilon theophrasti, ABT); assay: Post-emerge test, velvetleaf; conditions: 250 g ai/ha, 14 days after application, rating scale 0-100 (0 no damage, 100 complete death)
Method in brief: (§3)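 Foliar application, track sprayer with flat fan nozzle, 187 l/ha acetone + 0.25% v/v NIS, 8-1000 g ai/ha; plants at 2-3 leaves, sown 8-21 d before. Scored 0-100 at 14 DAA.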

[4] = test system: cocklebur (Xanthium strumariunt, XAS); assay: Pre-emerge test, cocklebur; conditions: 250 g ai/ha, 14 days after application, rating scale 0-100 (0 no damage, 100 complete death)
Method in brief: as §1

[5] = test system: sicklepod (Cassia obtusifolia, CAO); assay: Post-emerge test, sicklepod; conditions: 250 g ai/ha, 14 days after application, rating scale 0-100 (0 no damage, 100 complete death)
Method in brief: as §3

[6] = test system: johnsongrass (Sorghum halepense, SOH); assay: Pre-emerge test, johnsongrass; conditions: 250 g ai/ha, 14 days after application, rating scale 0-100 (0 no damage, 100 complete death)
Method in brief: as §1

[7] = test system: upland rice (Oryza sp., var.Tebonnet, RICE); assay: Pre-emerge test, crop damage upland rice
Method in brief: as §2

[8] = test system: green foxtail (Setaria viridis, SEV); assay: Pre-emerge test, green foxtail; conditions: 250 g ai/ha, 14 days after application, rating scale 0-100 (0 no damage, 100 complete death)
Method in brief: as §1

[9] = test system: common ragweed (Ambrosia artemisiifolia L., AML); assay: Pre-emerge test, common ragweed; conditions: 250 g ai/ha, 14 days after application, rating scale 0-100 (0 no damage, 100 complete death)
Method in brief: as §1

[10] = test system: common ragweed (Ambrosia artemisiifolia L., AML); assay: Post-emerge test, common ragweed; conditions: 250 g ai/ha, 14 days after application, rating scale 0-100 (0 no damage, 100 complete death)
Method in brief: as §3

[11] = test system: wheat (Triticum aestivum); assay: Post-emerge test, crop damage wheat
Method in brief: as §3

[12] = test system: johnsongrass (Sorghum halepense, SOH); assay: Post-emerge test, johnsongrass; conditions: 250 g ai/ha, 14 days after application, rating scale 0-100 (0 no damage, 100 complete death)
Method in brief: as §3

[13] = test system: field corn (Zea mays L., var. Dekalb 535, CORN); assay: Post-emerge test, crop damage field corn
Method in brief: as §3

[14] = test system: large crabgrass (Digitaria sanguinalis, DIS); assay: Pre-emerge test, large crabgrass; conditions: 250 g ai/ha, 14 days after application, rating scale 0-100 (0 no damage, 100 complete death)
Method in brief: as §1

[15] = test system: barnyardgrass (Echinachloa crus-galli, ECC); assay: Pre-emerge test, barnyardgrass; conditions: 250 g ai/ha, 14 days after application, rating scale 0-100 (0 no damage, 100 complete death)
Method in brief: as §1

[16] = test system: redroot pigweed (Amaranthus retroflexus, AMR); assay: Pre-emerge test, redroot pigweed; conditions: 250 g ai/ha, 14 days after application, rating scale 0-100 (0 no damage, 100 complete death)
Method in brief: as §1

[17] = test system: barnyardgrass (Echinachloa crus-galli, ECC); assay: Post-emerge test, barnyardgrass; conditions: 250 g ai/ha, 14 days after application, rating scale 0-100 (0 no damage, 100 complete death)
Method in brief: as §3

[18] = test system: ivyleaf morningglory (Ipomoea hederacea, IPH); assay: Pre-emerge test, ivyleaf morningglory; conditions: 250 g ai/ha, 14 days after application, rating scale 0-100 (0 no damage, 100 complete death)
Method in brief: as §1

[19] = test system: lambsquarters (Chenopodium album, CHA); assay: Post-emerge test, lambsquarters; conditions: 250 g ai/ha, 14 days after application, rating scale 0-100 (0 no damage, 100 complete death)
Method in brief: as §3

[20] = test system: wheat (Triticum aestivum); assay: Pre-emerge test, crop damage wheat
Method in brief: as §2

[21] = test system: soybean (Glycine max L., var. Pella 86, SOY); assay: Post-emerge test, crop damage soybean
Method in brief: as §3

[22] = test system: large crabgrass (Digitaria sanguinalis, DIS); assay: Post-emerge test, large crabgrass; conditions: 250 g ai/ha, 14 days after application, rating scale 0-100 (0 no damage, 100 complete death)
Method in brief: as §3

[23] = test system: ivyleaf morningglory (Ipomoea hederacea, IPH); assay: Post-emerge test, ivyleaf morningglory; conditions: 250 g ai/ha, 14 days after application, rating scale 0-100 (0 no damage, 100 complete death)
Method in brief: as §3

[24] = test system: sicklepod (Cassia obtusifolia, CAO); assay: Pre-emerge test, sicklepod; conditions: 250 g ai/ha, 14 days after application, rating scale 0-100 (0 no damage, 100 complete death)
Method in brief: as §1

[25] = test system: field corn (Zea mays L., var. Dekalb 535, CORN); assay: Pre-emerge test, crop damage field corn
Method in brief: as §2

[26] = test system: green foxtail (Setaria viridis, SEV); assay: Post-emerge test, green foxtail; conditions: 250 g ai/ha, 14 days after application, rating scale 0-100 (0 no damage, 100 complete death)
Method in brief: as §3

[27] = test system: cocklebur (Xanthium strumariunt, XAS); assay: Post-emerge test, cocklebur; conditions: 250 g ai/ha, 14 days after application, rating scale 0-100 (0 no damage, 100 complete death)
Method in brief: as §3

[28] = test system: velvetleaf (Abutilon theophrasti, ABT); assay: Pre-emerge test, velvetleaf; conditions: 250 g ai/ha, 14 days after application, rating scale 0-100 (0 no damage, 100 complete death)
Method in brief: as §1

[29] = test system: redroot pigweed (Amaranthus retroflexus, AMR); assay: Post-emerge test, redroot pigweed; conditions: 250 g ai/ha, 14 days after application, rating scale 0-100 (0 no damage, 100 complete death)
Method in brief: as §3

[30] = test system: upland rice (Oryza sp., var.Tebonnet, RICE); assay: Post-emerge test, crop damage upland rice
Method in brief: as §3

[31] = pre-emerge, 250 g ai/ha, 14 days after application, rating scale 0-100 (0 no damage, 100 complete death)
[32] = post-emerge, 250 g ai/ha, 14 days after application, rating scale 0-100 (0 no damage, 100 complete death)
[33] = var. Pella 86, Glycine max (soybean), in vivo, 14 days
[34] = var. Tebonnet, Oryza sp. (upland rice), in vivo, 14 days
[35] = Triticum aestivum (wheat), in vivo, 14 days
[36] = var. Dekalb 535, Zea mays (field corn), in vivo, 14 days

SMILES	Pre-emerge Herbicidal Activity CHA (phytotoxicity rating) [1]	Post-emerge Herbicidal Activity ABT (phytotoxicity rating) [3]	Pre-emerge Herbicidal Activity XAS (phytotoxicity rating) [4]	Post-emerge Herbicidal Activity CAO (phytotoxicity rating) [5]	Pre-emerge Herbicidal Activity SOH (phytotoxicity rating) [6]	Pre-emerge Herbicidal Activity SEV (phytotoxicity rating) [8]	Pre-emerge Herbicidal Activity AML (phytotoxicity rating) [9]	Post-emerge Herbicidal Activity AML (phytotoxicity rating) [10]	Post-emerge Herbicidal Activity SOH (phytotoxicity rating) [12]	Pre-emerge Herbicidal Activity DIS (phytotoxicity rating) [14]	Pre-emerge Herbicidal Activity ECC (phytotoxicity rating) [15]	Pre-emerge Herbicidal Activity AMR (phytotoxicity rating) [16]	Post-emerge Herbicidal Activity ECC (phytotoxicity rating) [17]	Pre-emerge Herbicidal Activity IPH (phytotoxicity rating) [18]	Post-emerge Herbicidal Activity CHA (phytotoxicity rating) [19]	Post-emerge Herbicidal Activity DIS (phytotoxicity rating) [22]	Post-emerge Herbicidal Activity IPH (phytotoxicity rating) [23]	Pre-emerge Herbicidal Activity CAO (phytotoxicity rating) [24]	Post-emerge Herbicidal Activity SEV (phytotoxicity rating) [26]	Post-emerge Herbicidal Activity XAS (phytotoxicity rating) [27]	further results
CC1Oc2cc(F)c(-c3nn(C)c(C(F)(F)F)c3Cl)c3c2N(C1=O)C(C)C(=O)N3 (mixture of isomers) [1-50]	100	100	75	75	100	100	100	70	55	99	99	100	99	90	100	70	100	99	70	100	Pre-emerge crop damage SOY (phytotoxicity rating) [2, 31]: 60; Pre-emerge crop damage RICE (phytotoxicity rating) [7, 31]: 50; Post-emerge crop damage WHEAT (phytotoxicity rating) [11, 32]: 35; Post-emerge crop damage CORN (phytotoxicity rating) [13, 32]: 20; Pre-emerge crop damage WHEAT (phytotoxicity rating) [20, 31]: 25; Post-emerge crop damage SOY (phytotoxicity rating) [21, 32]: 75; Pre-emerge crop damage CORN (phytotoxicity rating) [25, 31]: 85; Pre-emerge Herbicidal Activity ABT (phytotoxicity rating) [28]: 100; Post-emerge Herbicidal Activity AMR (phytotoxicity rating) [29]: 100; Post-emerge crop damage RICE (phytotoxicity rating) [30, 32]: 65
Cn1nc(-c2c(F)cc3c4c2NC(=O)C(C)(C)N4C(=O)CO3)c(Cl)c1C(F)(F)F [1-15, 8-[4-Chloro-1-methyl-5-(trifluoromethyl)-1H-pyrazol-3-yl]-5,5-dimethyl-9-fluoro-5H-pyrazino[1,2,3-de]-1,4-benzoxazine-3,6(2H, 7H)-dione]	100	100	100	99	100	100	100	98	55	100	100	100	99	100	100	50	100	100	99	100	Pre-emerge crop damage SOY (phytotoxicity rating) [2, 33]: 50; Pre-emerge crop damage RICE (phytotoxicity rating) [7, 34]: 40; Post-emerge crop damage WHEAT (phytotoxicity rating) [11, 35]: 50; Post-emerge crop damage CORN (phytotoxicity rating) [13, 36]: 35; Pre-emerge crop damage WHEAT (phytotoxicity rating) [20, 35]: 90; Post-emerge crop damage SOY (phytotoxicity rating) [21, 33]: 100; Pre-emerge crop damage CORN (phytotoxicity rating) [25, 36]: 60; Pre-emerge Herbicidal Activity ABT (phytotoxicity rating) [28]: 100; Post-emerge Herbicidal Activity AMR (phytotoxicity rating) [29]: 100; Post-emerge crop damage RICE (phytotoxicity rating) [30, 34]: 80
O=C1CN2C(=O)COc3cc(F)c(-n4nnn(CCCF)c4=O)c(c32)N1 [1-76]	98	0	60	0	35	0	55	0	0	25	35	65	0	25	0	0	0	45	0	0	Pre-emerge crop damage SOY (phytotoxicity rating) [2, 31]: 0; Pre-emerge crop damage RICE (phytotoxicity rating) [7, 31]: 10; Post-emerge crop damage WHEAT (phytotoxicity rating) [11, 32]: 0; Post-emerge crop damage CORN (phytotoxicity rating) [13, 32]: 0; Pre-emerge crop damage WHEAT (phytotoxicity rating) [20, 31]: 0; Post-emerge crop damage SOY (phytotoxicity rating) [21, 32]: 0; Pre-emerge crop damage CORN (phytotoxicity rating) [25, 31]: 5; Pre-emerge Herbicidal Activity ABT (phytotoxicity rating) [28]: 55; Post-emerge Herbicidal Activity AMR (phytotoxicity rating) [29]: 0; Post-emerge crop damage RICE (phytotoxicity rating) [30, 32]: 0
